Experimental data from patent US4782052A, “Octahydroindolo[2,3-a]quinolizin-1-yl-alkanecarboxylic acid amines and their therapeutically useful acid addition salts, pharmaceutical compositions containing them and process for preparing same” (Richter Gedeon Vegyeszeti Gyar Rt., priority 1984, dated 1988).
Where two headings read alike, the source gives them in different places.

Experiments:
[1] = system: Indomethacin-induced intestinal ulceration; test: Inhibition of the Indomethacin-induced intestinal ulceration; type: in vivo, H-Wistar rats; details: for Tensile strength of the intestinal wall at 24 hours after the last treatment: 3 consecutive days, ± S.E.M., Indomethacin control 72 ± 10, untreated 237 ± 4; for Resistance of the intestinal wall as % of the normal value: Indomethacin control 30
Protocol: Inhibition of the Indomethacin-induced intestinal ulceration Unstarved H-Wistar rats weighing 120 to 150 g. were used for these investigations. The animals were orally treated with Indomethacin. Under these conditions a period of 24 to 48 hours is at least required for the development of visually observable intestinal ulcers. For evaluating the small intestine ulcers, the tensile strength of the intestinal wall was determined by using the inflation method of Ezer and Sporny (1975), as the strength of the intestinal wall is diminished by the ulceration-induced erosion. The small intestine from the pylorus down to the caecum was removed and after ligation of the end it was connected through a polyethylene tube with a W+W electronic BP 8005 pressure recorder (Ugo Basile, Italy). The whole small intestine was placed into a 0.9% saline solution at 37° C. and the pressure was increased until air bubbles appeared at the attenuated (weakened) sites of the intestinal wall. This pressure as expressed in mmHg is the measure of the tensile strength.

[2] = system: ethanolic hydrochloric acid-induced gastric edema and hemorrhagic lesions; test: Inhibition of the ethanolic hydrochloric acid-induced gastric necrosis; type: in vivo, Female RG-Wistar rats; details: for Hemorrhagic lesions / Edema: ± S.E.M.; for Hemorrhagic lesions: control 132 ± 7; for Edema: control 349 ± 81; for ED50: Rattus norvegicus, oral
Protocol: Inhibition of the ethanolic hydrochloric acid-induced gastric necrosis Female RG-Wistar rats weighing 120 to 150 g. were used for these investigations. The animals were starved for 24 hours while receiving water ad libitum. […] The test substances were orally administered 30 minutes before the treatment with the ethanolic hydrochloric acid. One hour later the animals were killed by an overdose of ether. Their stomach was removed and cut along the major curvature. The stomach was cleaned and its wet weight was weighed. The gastric edema was calculated from the difference between the obtained wet weight and the wet weight of the stomach of the untreated animals. Thereafter, the stomach was dried at room temperature and the presence of the hemorrhagic lesions was visually observed on the next day. The degree of the gastric necrosis was characterized by the mean value of the damage in mm./stomach. The results were statistically evaluated by Student's test.

[3] = system: gastric acid secretion in Shay rats; test: Inhibition of the gastric acid secretion in Shay rats; type: in vivo, Female H-Wistar rats; details: for HCl output (4 hours): N 5, control 520 ± 28
Protocol: Inhibition of the gastric acid secretion in Shay rats
Female H-Wistar rats weighing 120 to 150 g were starved for 24 hours while receiving water ad libitum. Then, the pylorus of the animals was ligated under a mild ether anesthesia. The test substances were administered orally or intraperitoneally. After 4 hours the animals were killed by an overdose of ether and after excision of the stomach, the volume and pH value of the gastric juice were measured. The acid content was determined by titration against 0.01N sodium hydroxide solution by using phenolphthalein as indicator.

[4] = system: aspirin-induced stomach ulcer; test: Inhibition of the aspirin-induced stomach ulcer in rats; type: in vivo, Female H-Wistar rats; details: for No. of ulcers per stomach: ± S.E.M., aspirin control 16.6 ± 5
Protocol: Inhibition of the aspirin-induced stomach ulcer in rats
This test is very common in the pharmacological practice. Female H-Wistar rats weighing 120 to 150 g. were starved for 24 hours while receiving water ad libitum. The stomach ulcer was induced by the oral administration of 100 mg./kg. aspirin in a Tween 80 suspension. The test substance was given immediately after the aspirin treatment. At the end of the 4th hour after treatment the animals were killed by an overdose of ether, their stomach was excised and cut along the major curvature. The stomach content was washed out and the hemorrhagic lesions on the glandular surface were counted.

Oral toxicity in rats = details: rat, in vivo
[5] = 3 × (50 + 10) mg./kg. p.o. with Indomethacin
[6] = 50 mg./kg. p.o., p < 0.01 vs control
[7] = 3 × (25 + 10) mg./kg. p.o. with Indomethacin

Structure (SMILES): CN1CCN(CC(=O)N2c3ccccc3C(=O)Nc3cccnc32)CC1 [Pirenzepine, reference compound]
- Tensile strength of the intestinal wall at 24 hours after the last treatment [1, 5]: 121 ± 26 mmHg
- Resistance of the intestinal wall as % of the normal value [1, 5]: 51%

Structure (SMILES): CC[C@@]1(CCC(=O)N[C@H](C)c2ccccc2)CCCN2CCc3c([nH]c4ccccc34)[C@@H]21 [RGH-2961, (-)-(1S,12bS)-1-ethyl-1,2,3,4,6,7,12,12b-octahydroindolo[2,3-a]quinolizin-1-yl-propionic acid (R)-1-phenylethylamide]
- Edema Inhibition ([2]; 1 mg./kg. p.o.): 0%
- Hemorrhagic lesions Inhibition ([2]; 1 mg./kg. p.o.): 36%
- Hemorrhagic lesions ([2]; 1 mg./kg. p.o., N 7): 88 ± 28 mm.
- Edema ([2]; 1 mg./kg. p.o., N 7): 345 ± 93 mg
- Edema Inhibition ([2]; 10 mg./kg. p.o.): 44%
- Hemorrhagic lesions Inhibition ([2]; 10 mg./kg. p.o., p < 0.01 vs control): 62%
- Hemorrhagic lesions ([2]; 10 mg./kg. p.o., N 7): 51 ± 9 mm.
- Edema ([2]; 10 mg./kg. p.o., N 7): 197 ± 52 mg
- Edema Inhibition [2, 6]: 85%
- Hemorrhagic lesions Inhibition [2, 6]: 88%
- Hemorrhagic lesions ([2]; 50 mg./kg. p.o., N 7): 17 ± 6 mm.
- Edema ([2]; 50 mg./kg. p.o., N 7): 53 ± 41 mg
- ED50 ([2]; gastric edema, read-out: oral ED50 value of the gastric edema inhibition): 12.5 mg/kg
- ED50 ([2]; hemorrhagic lesions, read-out: oral ED50 value of the gastric hemorrhagic lesion inhibition): 3 mg/kg
- HCl output inhibition ([3]; 6 mg./kg. i.p.): 19%
- HCl output (4 hours) ([3]; 6 mg./kg. i.p., ± S.E.M.): 425 ± 40 μmole/100 g. of body weight
- HCl output inhibition ([3]; 10 mg./kg. p.o.): 8%
- HCl output (4 hours) ([3]; 10 mg./kg. p.o., ± S.E.M.): 483 ± 40 μmole/100 g. of body weight
- HCl output inhibition ([3]; 12 mg./kg. i.p., p < 0.01 vs control): 63%
- HCl output (4 hours) ([3]; 12 mg./kg. i.p., ± S.E.M.): 195 ± 25 μmole/100 g. of body weight
- HCl output inhibition ([3]; 20 mg./kg. p.o.): 10%
- HCl output (4 hours) ([3]; 20 mg./kg. p.o., ± S.E.M.): 468 ± 35 μmole/100 g. of body weight
- HCl output inhibition ([3]; 25 mg./kg. i.p.): 100%
- HCl output (4 hours) ([3]; 25 mg./kg. i.p.): 0 μmole/100 g. of body weight
- HCl output inhibition ([3]; 40 mg./kg. p.o.): 22%
- HCl output (4 hours) ([3]; 40 mg./kg. p.o., ± S.E.M.): 409 ± 30 μmole/100 g. of body weight
- No. of ulcers per stomach ([4]; 5 mg./kg. p.o. + aspirin 100 mg./kg., N 10): 7.1 ± 2
- Inhibition ([4]; 5 mg./kg. p.o., p < 0.01 vs aspirin control): 58%
- Inhibition ([4]; 10 mg./kg. p.o.): 32%
- No. of ulcers per stomach ([4]; 10 mg./kg. p.o. + aspirin 100 mg./kg., N 10): 11.0 ± 3
- No. of ulcers per stomach ([4]; 20 mg./kg. p.o. + aspirin 100 mg./kg., N 20): 3.5 ± 2.1
- Inhibition ([4]; 20 mg./kg. p.o., p < 0.01 vs aspirin control): 79%
- No. of ulcers per stomach ([4]; 50 mg./kg. p.o. + aspirin 100 mg./kg., N 10): 2.5 ± 1.5
- Inhibition ([4]; 50 mg./kg. p.o., p < 0.01 vs aspirin control): 85%
- ED50 ([4]; Rattus norvegicus, 4 h, aspirin-induced gastric ulcer formation, oral): 8 mg/kg
- LD50 (Oral toxicity in rats): > 1500 mg/kg
- Tensile strength of the intestinal wall at 24 hours after the last treatment ([1]; 3 × (12 + 10) mg./kg. p.o. with Indomethacin): 132 ± 16 mmHg
- Tensile strength of the intestinal wall at 24 hours after the last treatment [1, 7]: 195 ± 8 mmHg
- Resistance of the intestinal wall as % of the normal value [1, 7]: 82%
- Tensile strength of the intestinal wall at 24 hours after the last treatment [1, 5]: 214 ± 6 mmHg
- Resistance of the intestinal wall as % of the normal value [1, 5]: 90%
- Resistance of the intestinal wall as % of the normal value ([1]; p.o. with Indomethacin): 55%

Structure (SMILES): CN/C(=N/CCSCc1nc[nH]c1C)NC#N [Cimetidine, reference compound]
- Edema Inhibition ([2]; 100 mg./kg. p.o.): 14%
- Hemorrhagic lesions Inhibition ([2]; 100 mg./kg. p.o., p < 0.01 vs control): 69%
- Hemorrhagic lesions ([2]; 100 mg./kg. p.o., N 8): 42 ± 13 mm.
- Edema ([2]; 100 mg./kg. p.o., N 8): 301 ± 42 mg
- Tensile strength of the intestinal wall at 24 hours after the last treatment [1, 5]: 20 ± 25 mmHg
- Resistance of the intestinal wall as % of the normal value [1, 5]: 8%
